# Laboratory results from US9796700B2 (Celgene CAR LLC, priority 2013, dated 2017).
# Target: Erk1 (Homo sapiens (Human), UniProt P27361)
# Test: Protein Mass Modification Assay (intact protein MALDI)
# Format: binding
# Protocol: Protein Mass Modification Assay
# Intact protein: Erk1 from Millipore (Cat. No. 14-439) was incubated for 60 min. at room temperature with a 10-fold excess of test compound to protein. 4 μL aliquots of the resulting mixture were diluted with 15 μL of 0.2% TFA prior to micro C4 ZipTipping directly onto the MALDI target using sinapinic acid as the desorption matrix (10 mg/ml in 0.1% TFA:Acetonitrile 50:50, v/v). The centroid mass of the target protein in the control sample was compared with the centroid mass of the target protein incubated with compound. A shift in the centroid mass of the treated protein compared to the untreated protein was divided by the molecular weight of the compound. This number corresponds to the percentage of modified protein after one hour incubation. Results from this assay are reported in Table A under the column “ERK1 Mass Mod (%).”
# Erk1, sequence (P27361 whole entry, looked up): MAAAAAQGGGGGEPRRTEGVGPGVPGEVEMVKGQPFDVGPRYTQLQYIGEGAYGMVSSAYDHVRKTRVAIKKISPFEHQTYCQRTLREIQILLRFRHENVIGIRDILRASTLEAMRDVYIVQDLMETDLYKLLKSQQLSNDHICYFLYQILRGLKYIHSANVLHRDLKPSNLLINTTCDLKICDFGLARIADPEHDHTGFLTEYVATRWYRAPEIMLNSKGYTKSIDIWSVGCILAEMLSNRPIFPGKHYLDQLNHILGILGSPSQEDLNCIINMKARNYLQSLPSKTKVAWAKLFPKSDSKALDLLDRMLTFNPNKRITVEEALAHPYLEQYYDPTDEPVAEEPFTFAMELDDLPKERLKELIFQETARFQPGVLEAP
row,SMILES,ERK1 Mass Mod (%)
1,"CC(=O)N1CCC[C@H](Nc2ncc(C(F)(F)F)c(Nc3ccccc3NC(=O)CCCl)n2)C1 [Compound I-21, (S)—N-(2-((2-((1-Acetylpiperidin-3-yl)amino)-5-(trifluoromethyl)pyrimidin-4-yl)amino)phenyl)-3-chloropropanamide]",F (provided a mass modification of 31-69%)
2,"O=C(CCCl)Nc1ccccc1Nc1nc(N[C@H]2CCCN(C(=O)CO)C2)ncc1C(F)(F)F [Compound I-22, (S)-3-Chloro-N-(2-((2-((1-(2-hydroxyacetyl)piperidin-3-yl)amino)-5-(trifluoromethyl)pyrimidin-4-yl)amino)phenyl)propanamide]",G (proived a mass modification ≦30%)
3,"CC(=O)N1CCC[C@H](Nc2ncc(C(F)(F)F)c(Nc3ccccc3NC(=O)CCl)n2)C1 [Compound I-30, (S)—N-(2-((2-((1-Acetylpiperidin-3-yl)amino)-5-(trifluoromethyl)pyrimidin-4-yl)amino)phenyl)-2-chloroacetamide]",G (proived a mass modification ≦30%)
4,"O=C(CCl)Nc1ccccc1Nc1nc(N[C@H]2CCCN(C(=O)CCl)C2)ncc1C(F)(F)F [Compound I-31, (S)-2-Chloro-N-(2-((2-((1-(2-chloroacetyl)piperidin-3-yl)amino)-5-(trifluoromethyl)pyrimidin-4-yl)amino)phenyl)acetamide]",G (proived a mass modification ≦30%)
5,"C=CC(=O)N[C@@H]1CCCC[C@H]1Nc1nc(N[C@H]2CCCN(C(=O)CO)C2)ncc1C(F)(F)F [Compound I-32, N-((1R,2R)-2-((2-(((S)-1-(2-hydroxyacetyl)piperidin-3-yl)amino)-5-(trifluoromethyl)pyrimidin-4-yl)amino)cyclohexyl)acrylamide]",F (key: E: provided a mass modification of ≧70%; F: provided a mass modification of 31-69%; G: proived a mass modification ≦30%)
6,"C#CC(=O)N[C@@H]1CCCC[C@H]1Nc1nc(N[C@H]2CCCN(C(=O)CO)C2)ncc1C(F)(F)F [Compound I-34, N-((1R,2R)-2-((2-(((S)-1-(2-Hydroxyacetyl)piperidin-3-yl)amino)-5-(trifluoromethyl)pyrimidin-4-yl)amino)cyclohexyl)propiolamide]",F (provided a mass modification of 31-69%)
7,"O=C(CCl)N[C@@H]1CCCC[C@H]1Nc1nc(N[C@H]2CCCN(C(=O)CO)C2)ncc1C(F)(F)F [Compound I-35, 2-Chloro-N-((1R,2R)-2-((2-(((S)-1-(2-hydroxyacetyl)piperidin-3-yl)amino)-5-(trifluoromethyl)pyrimidin-4-yl)amino)cyclohexyl)acetamide]",G (proived a mass modification ≦30%)
8,"C=CC(=O)Nc1ccc(C)cc1Nc1nc(NC2CCC(=O)CC2)ncc1C(F)(F)F [Compound I-39, N-(4-Methyl-2-((2-((4-oxocyclohexyl)amino)-5-(trifluoromethyl)pyrimidin-4-yl)amino)phenyl)acrylamide]",E (provided a mass modification of ≧70%)
9,"C=CC(=O)Nc1ccccc1Nc1nc(N[C@H]2CCCN(C(=O)C(C)=O)C2)ncc1C(F)(F)F [Compound I-49, (S)—N-(2-((2-((1-(2-Oxopropanoyl)piperidin-3-yl)amino)-5-(trifluoromethyl)pyrimidin-4-yl)amino)phenyl)acrylamide]",E (provided a mass modification of ≧70%)
10,"C=CC(=O)Nc1ccccc1Nc1nc(N[C@H]2CCCN(C(=O)[C@@H](O)CO)C2)ncc1C(F)(F)F [Compound I-50, N-(2-((2-(((S)-1-((S)-2,3-Dihydroxypropanoyl)piperidin-3-yl)amino)-5-(trifluoromethyl)pyrimidin-4-yl)amino)phenyl)acrylamide]",E (provided a mass modification of ≧70%)
11,"C=CC(=O)Nc1ccccc1Nc1nc(N[C@H]2CCCN(C(=O)[C@H](O)CO)C2)ncc1C(F)(F)F [Compound I-51, N-(2-((2-(((S)-1-((R)-2,3-Dihydroxypropanoyl)piperidin-3-yl)amino)-5-(trifluoromethyl)pyrimidin-4-yl)amino)phenyl)acrylamide]",E (provided a mass modification of ≧70%)
12,"C=CC(=O)Nc1ccccc1Nc1nc(N[C@H]2CCCN(C(=O)C=O)C2)ncc1C(F)(F)F [Compound I-52, (S)—N-(2-((2-((1-(2-Oxoacetyl)piperidin-3-yl)amino)-5-(trifluoromethyl)pyrimidin-4-yl)amino)phenyl)acrylamide]",E (provided a mass modification of ≧70%)
13,"C=CC(=O)Nc1ccccc1Nc1nc(N[C@H]2CCN(C(C)=O)C2)ncc1C(F)(F)F [Compound I-56, (S)—N-(2-((2-((1-Acetylpyrrolidin-3-yl)amino)-5-(trifluoromethyl)pyrimidin-4-yl)amino)phenyl)acrylamide]",F (provided a mass modification of 31-69%)
14,"C=CC(=O)Nc1ccccc1Nc1nc(N[C@H]2CCN(C(=O)CO)C2)ncc1C(F)(F)F [Compound I-57, (S)—N-(2-((2-((1-(2-Hydroxyacetyl)pyrrolidin-3-yl)amino)-5-(trifluoromethyl)pyrimidin-4-yl)amino)phenyl)acrylamide]",F (provided a mass modification of 31-69%)
15,"C=CC(=O)Nc1ccccc1Nc1nc(N[C@H]2CCN(S(C)(=O)=O)C2)ncc1C(F)(F)F [Compound I-58, (S)—N-(2-((2-((1-(Methylsulfonyl)pyrrolidin-3-yl)amino)-5-(trifluoromethyl)pyrimidin-4-yl)amino)phenyl)acrylamide]",E (provided a mass modification of ≧70%)
16,"C=CC(=O)Nc1ccccc1Nc1nc(N[C@H]2CCN(C(=O)OC)C2)ncc1C(F)(F)F [Compound I-59, (S)-methyl 3-((4-((2-Acrylamidophenyl)amino)-5-(trifluoromethyl)pyrimidin-2-yl)amino)pyrrolidine-1-carboxylate]",E (provided a mass modification of ≧70%)
17,"C=CC(=O)Nc1ccccc1Nc1nc(N[C@@H]2CCN(C(C)=O)C2)ncc1C(F)(F)F [Compound I-60, (R)—N-(2-((2-((1-Acetylpyrrolidin-3-yl)amino)-5-(trifluoromethyl)pyrimidin-4-yl)amino)phenyl)acrylamide]",E (provided a mass modification of ≧70%)
18,"C=CC(=O)Nc1ccccc1Nc1nc(Nc2ccc(N3CCOCC3)cc2OC)ncc1C(F)(F)F [Compound I-65, N-(2-((2-((2-Methoxy-4-morpholinophenyl)amino)-5-(trifluoromethyl)pyrimidin-4-yl)amino)phenyl)acrylamide]",E (provided a mass modification of ≧70%)
19,"C=CC(=O)Nc1ccccc1Nc1nc(Nc2cc(C(=O)NOC)ccc2OC)ncc1C(F)(F)F [Compound I-67, 3-((4-((2-Acrylamidophenyl)amino)-5-(trifluoromethyl)pyrimidin-2-yl)amino)-N,4-dimethoxybenzamide]",E (provided a mass modification of ≧70%)
20,"C=CC(=O)Nc1ccccc1Nc1nc(Nc2cc(C(=O)NOC)ccc2C#N)ncc1C(F)(F)F [Compound I-72, 3-((4-((2-Acrylamidophenyl)amino)-5-(trifluoromethyl)pyrimidin-2-yl)amino)-4-cyano-N-methoxybenzamide]",E (provided a mass modification of ≧70%)
21,"C=CC(=O)Nc1ccccc1Nc1nc(Nc2cc(C(=O)NOCCO)ccc2C)ncc1C(F)(F)F [Compound I-73, 3-((4-((2-Acrylamidophenyl)amino)-5-(trifluoromethyl)pyrimidin-2-yl)amino)-N-(2-hydroxyethoxy)-4-methylbenzamide]",E (key: E: provided a mass modification of ≧70%; F: provided a mass modification of 31-69%; G: proived a mass modification ≦30%)
22,"C=CC(=O)Nc1ccccc1Nc1nc(Nc2cc(C(=O)NOCCO)ccc2OC)ncc1C(F)(F)F [Compound I-74, 3-((4-((2-Acrylamidophenyl)amino)-5-(trifluoromethyl)pyrimidin-2-yl)amino)-N-(2-hydroxyethoxy)-4-methoxybenzamide]",E (provided a mass modification of ≧70%)
23,"C=CC(=O)Nc1ccccc1Nc1nc(Nc2cc(C(=O)NOCCO)ccc2C#N)ncc1C(F)(F)F [Compound I-75, 3-((4-((2-Acrylamidophenyl)amino)-5-(trifluoromethyl)pyrimidin-2-yl)amino)-4-cyano-N-(2-hydroxyethoxy)benzamide]",E (provided a mass modification of ≧70%)
24,"C=CC(=O)Nc1ccccc1Nc1nc(Nc2cc(C(=O)O)ccc2C)ncc1C(F)(F)F [Compound I-78, 3-((4-((2-Acrylamidophenyl)amino)-5-(trifluoromethyl)pyrimidin-2-yl)amino)-4-methylbenzoic acid]",E (provided a mass modification of ≧70%)
25,"C=CC(=O)Nc1ccccc1Nc1nc(Nc2cc(C(=O)NC)c(F)cc2C)ncc1C(F)(F)F [Compound I-80, 5-((4-((2-Acrylamidophenyl)amino)-5-(trifluoromethyl)pyrimidin-2-yl)amino)-2-fluoro-N,4-dimethylbenzamide]",E (provided a mass modification of ≧70%)
26,"C=CC(=O)Nc1ccccc1Nc1nc(Nc2cc(C(=O)NCCO)c(F)cc2C)ncc1C(F)(F)F [Compound I-81, 5-((4-((2-Acrylamidophenyl)amino)-5-(trifluoromethyl)pyrimidin-2-yl)amino)-2-fluoro-N-(2-hydroxyethyl)-4-methylbenzamide]",E (provided a mass modification of ≧70%)
27,"C=CC(=O)Nc1ccccc1Nc1nc(NC(C)(C)C)ncc1C(F)(F)F [Compound I-82, N-(2-((2-(tert-Butylamino)-5-(trifluoromethyl)pyrimidin-4-yl)amino)phenyl)acrylamide]",E (provided a mass modification of ≧70%)
